Biological target: T1, MAPK15 (ERK7) (Homo sapiens, UniProt Q8TD08)
T1 construct: purchased Thermo Fisher Scientific (Life Technologies) SelectScreen
Experiment: SelectScreen LanthaScreen
Type: binding
Conditions: read-out: % displacement
Summary of the method: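 Percent values come from Thermo SelectScreen profiling of NU5455, combining activity and binding assays. CSF1R was run in Z'LYTE format at Km app ATP, and CAMK1 in Adapta format with ATP listed at 10.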

T1 sequence (Q8TD08 whole entry): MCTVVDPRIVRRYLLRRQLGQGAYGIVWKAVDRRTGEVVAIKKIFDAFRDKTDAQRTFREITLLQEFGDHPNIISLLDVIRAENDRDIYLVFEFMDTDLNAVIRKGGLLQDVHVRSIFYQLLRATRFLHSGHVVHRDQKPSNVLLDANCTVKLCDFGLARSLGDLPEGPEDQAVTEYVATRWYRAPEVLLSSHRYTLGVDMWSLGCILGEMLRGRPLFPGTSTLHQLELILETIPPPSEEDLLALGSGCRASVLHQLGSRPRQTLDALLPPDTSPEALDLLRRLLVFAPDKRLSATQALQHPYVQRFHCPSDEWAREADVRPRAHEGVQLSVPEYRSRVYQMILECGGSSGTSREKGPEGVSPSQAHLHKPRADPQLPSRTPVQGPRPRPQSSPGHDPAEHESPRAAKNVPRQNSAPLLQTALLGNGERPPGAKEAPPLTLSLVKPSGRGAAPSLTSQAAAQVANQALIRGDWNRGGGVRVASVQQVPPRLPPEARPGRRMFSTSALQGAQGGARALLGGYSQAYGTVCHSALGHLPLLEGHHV

Compound: CN(C(=O)CN1CCOCC1)c1ccc2sc3c(-c4cccc5c(=O)cc(N6CC7CCC(C6)O7)oc45)cccc3c2c1 [NU5455]
- inhibition at 1 µM: 3.6%

From paper PMC6934184, “Selective DNA-PKcs inhibition extends the therapeutic index of localized radiotherapy and chemotherapy” (The Journal of Clinical Investigation, 2019)
